The structures appear in SMILES notation. Where “and” joins values, the source holds several entries; their conditions need not be identical. Equal entries are not always repeated. Calls of active or inactive are those of the source. The rule behind the calls is not given here.

The data set deals with rodent lifetime carcinogenesis bioassay, tumor incidence TD50. Briefly: chronic cancer bioassays in animals – CPDB, compiled studies (AID 1745844).

A word on the TD50: it is the dose at which the toxic effect under study appears in half of the subjects. On to `CCO`, for which the carcinogen call by setting is: (hamster, strain Syrian Golden, males, in drinking water, site: trachea, lesion: one or several types, types not named, dosed 29 weeks, study length 78 weeks) “negative (inactive)”; (mouse, strain BALB/c, males, in drinking water, site: forestomach, lesion: squamous-cell papilloma, dosed 69 weeks, study length 86 weeks) “negative (inactive)”; (mouse, strain Swiss, males, in drinking water, site: lung, lesion: adenoma, dosed 69 weeks, study length 86 weeks) “negative (inactive)”; (rat, strain Charles River CD (Sprague-Dawley), females, in drinking water, site: any site (literature study), lesion: one or several types, types not named, dosed 104 weeks, study length 104 weeks) “negative (inactive)”; (rat, strain Charles River CD (Sprague-Dawley), females, in drinking water, site: liver, lesion: neoplastic nodule, dosed 104 weeks, study length 104 weeks) “negative (inactive)”; (rat, strain Charles River CD (Sprague-Dawley), males, in drinking water, site: any site (literature study), lesion: one or several types, types not named, dosed 104 weeks, study length 104 weeks) “negative (inactive)”. Also, the carcinogen call is “negative (inactive)” (rat, strain Charles River CD (Sprague-Dawley), males, in drinking water, site: liver, lesion: hepatocellular carcinoma, dosed 104 weeks, study length 104 weeks); “negative (inactive)” (rat, strain F344/DuCrj, males, in drinking water, site: forestomach, lesion: one or several types, types not named, dosed 51 weeks, study length 52 weeks); “negative (inactive)” (rat, strain F344/DuCrj, males, in drinking water, site: stomach, glandular, lesion: one or several types, types not named, dosed 51 weeks, study length 52 weeks); “negative (inactive)” (rat, strain Sprague-Dawley, both sexes, in drinking water, site: any site (literature study), lesion: malignant tumor, dosed 111 weeks, study length 111 weeks). The TD50 reads like this: (mouse, strain A, males, in drinking water, site: liver, lesion: hepatocellular adenoma, dosed 72 weeks, study length 72 weeks) 127000 mg/kg/day; (mouse, strain Swiss, females, in drinking water, site: any site (literature study), lesion: several types, types named in the paper, dosed 69 weeks, study length 86 weeks) 21400 mg/kg/day (inactive); (mouse, strain Swiss, females, in drinking water, site: forestomach, lesion: squamous-cell papilloma, dosed 69 weeks, study length 86 weeks) 10900 mg/kg/day (inactive); (rat, strain ACI, males, in drinking water, site: forestomach, lesion: papilloma, dosed 52 weeks, study length 52 weeks) 4980 mg/kg/day; (rat, strain Charles River CD (Sprague-Dawley), males, in drinking water, site: liver, lesion: neoplastic nodule, dosed 104 weeks, study length 104 weeks) 84800 mg/kg/day (inactive); (rat, strain Slc-Wistar, males, in drinking water, site: liver, lesion: hepatocellular adenoma, dosed 120 weeks, study length 120 weeks) 56100 mg/kg/day (inactive). The TD50 by setting is: (rat, strain Slc-Wistar, males, in drinking water, site: liver, lesion: hepatocellular carcinoma, dosed 120 weeks, study length 120 weeks) 93900 mg/kg/day (inactive); (rat, strain Slc-Wistar, males, in drinking water, site: liver, lesion: several types, types named in the paper, dosed 120 weeks, study length 120 weeks) 33800 mg/kg/day (inactive); (rat, strain Sprague-Dawley, females, in drinking water, site: any site (literature study), lesion: malignant tumor, dosed 104 weeks, study length 120 weeks) 61000 mg/kg/day; (rat, strain Sprague-Dawley, females, in drinking water, site: any site (literature study), lesion: several types, types named in the paper, dosed 104 weeks, study length 120 weeks) 5870 mg/kg/day; (rat, strain Sprague-Dawley, females, in drinking water, site: liver, lesion: hepatocellular adenoma, dosed 104 weeks, study length 120 weeks) 201000 mg/kg/day; (rat, strain Sprague-Dawley, females, in drinking water, site: mammary gland, lesion: benign tumor, dosed 104 weeks, study length 120 weeks) 6070 mg/kg/day. The TD50 (rat, strain Sprague-Dawley, females, in drinking water, site: mammary gland, lesion: fibroadenoma, dosed 104 weeks, study length 120 weeks) came to 8790 mg/kg/day; the TD50 (rat, strain Sprague-Dawley, females, in drinking water, site: mammary gland, lesion: several types, types named in the paper, dosed 104 weeks, study length 120 weeks) is 4710 mg/kg/day; the TD50 (rat, strain Sprague-Dawley, females, in drinking water, site: pancreas, lesion: adenoma, dosed 104 weeks, study length 120 weeks) came out at 21900 mg/kg/day; the TD50 (rat, strain Sprague-Dawley, females, in drinking water, site: pituitary gland, lesion: neoplasm, NOS, dosed 104 weeks, study length 120 weeks) stood at 5480 mg/kg/day; the TD50 (rat, strain Sprague-Dawley, males, in drinking water, site: adrenal gland, lesion: one or several types, types not named, dosed 130 weeks, study length 130 weeks) is 13700 mg/kg/day; the TD50 (rat, strain Sprague-Dawley, males, in drinking water, site: any site (literature study), lesion: malignant tumor, dosed 104 weeks, study length 120 weeks) is 7180 mg/kg/day. The TD50 is, setting by setting: (rat, strain Sprague-Dawley, males, in drinking water, site: any site (literature study), lesion: several types, types named in the paper, dosed 104 weeks, study length 120 weeks) 1210 mg/kg/day; (rat, strain Sprague-Dawley, males, in drinking water, site: any site (literature study), lesion: several types, types named in the paper, dosed 130 weeks, study length 130 weeks) 2130 mg/kg/day; (rat, strain Sprague-Dawley, males, in drinking water, site: liver, lesion: hepatocellular carcinoma, dosed 104 weeks, study length 120 weeks) 164000 mg/kg/day; (rat, strain Sprague-Dawley, males, in drinking water, site: liver, lesion: hepatocellular carcinoma, dosed 130 weeks, study length 130 weeks) 28400 mg/kg/day; (rat, strain Sprague-Dawley, males, in drinking water, site: liver, lesion: hyperplastic nodule, dosed 130 weeks, study length 130 weeks) 8260 mg/kg/day; (rat, strain Sprague-Dawley, males, in drinking water, site: pancreas, lesion: carcinoma, dosed 104 weeks, study length 120 weeks) 17500 mg/kg/day. In addition, the TD50 reads like this: (rat, strain Sprague-Dawley, males, in drinking water, site: pancreas, lesion: one or several types, types not named, dosed 130 weeks, study length 130 weeks) 13700 mg/kg/day; (rat, strain Sprague-Dawley, males, in drinking water, site: pancreas, lesion: several types, types named in the paper, dosed 104 weeks, study length 120 weeks) 33200 mg/kg/day; (rat, strain Sprague-Dawley, males, in drinking water, site: pituitary gland, lesion: one or several types, types not named, dosed 130 weeks, study length 130 weeks) 9110 mg/kg/day.

For `Nc1c(Cl)cc(Cl)cc1Cl`, the TD50 reads like this: (mouse, strain CD-1 HaM/ICR, females, in feed, site: any site (literature study), lesion: several types, types named in the paper, dosed 68 weeks, study length 77 weeks) 914 mg/kg/day (inactive); (mouse, strain CD-1 HaM/ICR, females, in feed, site: liver, lesion: several types, types named in the paper, dosed 68 weeks, study length 77 weeks) 927 mg/kg/day (inactive); (mouse, strain CD-1 HaM/ICR, females, in feed, site: lung, lesion: several types, types named in the paper, dosed 68 weeks, study length 77 weeks) 1370 mg/kg/day (inactive); (mouse, strain CD-1 HaM/ICR, males, in feed, site: all sites, lesion: all vascular tumors, dosed 68 weeks, study length 77 weeks) 273 mg/kg/day and 259 mg/kg/day; (mouse, strain CD-1 HaM/ICR, males, in feed, site: any site (literature study), lesion: several types, types named in the paper, dosed 68 weeks, study length 77 weeks) 206 mg/kg/day; (mouse, strain CD-1 HaM/ICR, males, in feed, site: liver, lesion: hepatoma, dosed 68 weeks, study length 77 weeks) 560 mg/kg/day. Further, the TD50 by setting is: (mouse, strain CD-1 HaM/ICR, males, in feed, site: liver, lesion: several types, types named in the paper, dosed 68 weeks, study length 77 weeks) 452 mg/kg/day; (mouse, strain CD-1 HaM/ICR, males, in feed, site: lung, lesion: several types, types named in the paper, dosed 68 weeks, study length 77 weeks) 385 mg/kg/day (inactive); (rat, strain Charles River CD (Sprague-Dawley), males, in feed, site: any site (literature study), lesion: several types, types named in the paper, dosed 77 weeks, study length 116 weeks) 45.9 mg/kg/day (inactive). Further, where the note is “rat, strain Charles River CD (Sprague-Dawley), males, in feed, site: liver, lesion: several types, types named in the paper, dosed 77 weeks, study length 116 weeks”, the carcinogen call is “negative (inactive)”.

On to `C#C[C@]1(O)CC[C@H]2[C@@H]3CCc4cc(OC)ccc4[C@H]3CC[C@@]21C`, for which the TD50 was 6.27 mg/kg/day (inactive) (mouse, strain CFLP, females, in feed, site: liver, lesion: hepatocellular tumor, dosed 78 weeks, study length 78 weeks) and 1.81 mg/kg/day (inactive) (mouse, strain CFLP, males, in feed, site: liver, lesion: hepatocellular tumor, dosed 78 weeks, study length 78 weeks).

Take `COC(=O)NN`: the carcinogen call runs as follows: (rat, strain Wistar, females, in feed, site: any site (literature study), lesion: one or several types, types not named, dosed 104 weeks, study length 104 weeks) “negative (inactive)”; (rat, strain Wistar, males, in feed, site: any site (literature study), lesion: one or several types, types not named, dosed 104 weeks, study length 104 weeks) “negative (inactive)”.

Take `Cc1cccc2cccnc12`: the carcinogen call (rat, strain Fischer 344, females, in feed, site: liver, lesion: hyperplastic nodule, dosed 104 weeks, study length 104 weeks) was “negative (inactive)” and the carcinogen call (rat, strain Fischer 344, males, in feed, site: liver, lesion: hyperplastic nodule, dosed 104 weeks, study length 104 weeks) is “negative (inactive)”.

With `O=C(Nc1nc(-c2ccc([N+](=O)[O-])o2)cs1)C(F)(F)F`, the TD50 is, setting by setting: (mouse, strain Swiss, females, in feed, site: any site (literature study), lesion: several types, types named in the paper, dosed 46 weeks, study length 55 weeks) 8.01 mg/kg/day; (mouse, strain Swiss, females, in feed, site: forestomach, lesion: several types, types named in the paper, dosed 46 weeks, study length 55 weeks) 9.98 mg/kg/day; (mouse, strain Swiss, females, in feed, site: forestomach, lesion: squamous-cell carcinoma, dosed 46 weeks, study length 55 weeks) 38.6 mg/kg/day; (mouse, strain Swiss, females, in feed, site: forestomach, lesion: squamous-cell papilloma, dosed 46 weeks, study length 55 weeks) 43.5 mg/kg/day; (rat, strain Sprague-Dawley, females, in feed, site: any site (literature study), lesion: several types, types named in the paper, dosed 46 weeks, study length 66 weeks) 5.58 mg/kg/day; (rat, strain Sprague-Dawley, females, in feed, site: mammary gland, lesion: adenocarcinoma, dosed 46 weeks, study length 66 weeks) 7.27 mg/kg/day. In addition, where the note is “rat, strain Sprague-Dawley, females, in feed, site: mammary gland, lesion: several types, types named in the paper, dosed 46 weeks, study length 66 weeks”, the TD50 was 6.79 mg/kg/day.

Turning to `O=[N+]([O-])c1cc([N+](=O)[O-])c(Cl)c(Cl)c1Cl`, the TD50 (mouse, strain B6AKF1, females, oral dosing, site: any site (literature study), lesion: several types, types named in the paper, dosed 76 weeks, study length 76 weeks) came to 52.6 mg/kg/day; the TD50 (mouse, strain B6AKF1, females, oral dosing, site: lung, lesion: adenoma, dosed 76 weeks, study length 76 weeks) is 108 mg/kg/day; the TD50 (mouse, strain B6AKF1, males, oral dosing, site: lung, lesion: adenoma, dosed 76 weeks, study length 76 weeks) came out at 49 mg/kg/day; the TD50 (mouse, strain B6C3F1, males, oral dosing, site: any site (literature study), lesion: several types, types named in the paper, dosed 76 weeks, study length 76 weeks) came to 19.8 mg/kg/day.

Regarding `Nc1nc(-c2ccc([N+](=O)[O-])cc2)cs1`, the TD50 runs as follows: (mouse, strain Swiss, females, in feed, site: all sites, lesion: lymphocytic leukemia, dosed 46 weeks, study length 66 weeks) 9.95 mg/kg/day; (mouse, strain Swiss, females, in feed, site: any site (literature study), lesion: several types, types named in the paper, dosed 46 weeks, study length 66 weeks) 9.95 mg/kg/day.

Values taken from PubChem BioAssay AID1745844 (Carcinogenic Potency Database (CPDB), 2022).
